Like-named read-outs stand apart in the source and are kept apart here.
Assays:
mouse P–gp (mP–gp) = biological target: T1, mouse P–gp (mP–gp) (Mus musculus, UniProt P21447); experiment: P–gp ATPase activity (vanadate-sensitive, end point Pi release) in native membranes; format: biochemical; conditions: for Emax: read-out: V1, maximum activation; for Effect on P–gp ATPase activity: native membranes, Figure 1
T1 construct: made in house; host or cells: High-Five insect cells (Invitrogen), recombinant baculovirus; total membrane vesicles
T1 sequence (P21447 whole entry): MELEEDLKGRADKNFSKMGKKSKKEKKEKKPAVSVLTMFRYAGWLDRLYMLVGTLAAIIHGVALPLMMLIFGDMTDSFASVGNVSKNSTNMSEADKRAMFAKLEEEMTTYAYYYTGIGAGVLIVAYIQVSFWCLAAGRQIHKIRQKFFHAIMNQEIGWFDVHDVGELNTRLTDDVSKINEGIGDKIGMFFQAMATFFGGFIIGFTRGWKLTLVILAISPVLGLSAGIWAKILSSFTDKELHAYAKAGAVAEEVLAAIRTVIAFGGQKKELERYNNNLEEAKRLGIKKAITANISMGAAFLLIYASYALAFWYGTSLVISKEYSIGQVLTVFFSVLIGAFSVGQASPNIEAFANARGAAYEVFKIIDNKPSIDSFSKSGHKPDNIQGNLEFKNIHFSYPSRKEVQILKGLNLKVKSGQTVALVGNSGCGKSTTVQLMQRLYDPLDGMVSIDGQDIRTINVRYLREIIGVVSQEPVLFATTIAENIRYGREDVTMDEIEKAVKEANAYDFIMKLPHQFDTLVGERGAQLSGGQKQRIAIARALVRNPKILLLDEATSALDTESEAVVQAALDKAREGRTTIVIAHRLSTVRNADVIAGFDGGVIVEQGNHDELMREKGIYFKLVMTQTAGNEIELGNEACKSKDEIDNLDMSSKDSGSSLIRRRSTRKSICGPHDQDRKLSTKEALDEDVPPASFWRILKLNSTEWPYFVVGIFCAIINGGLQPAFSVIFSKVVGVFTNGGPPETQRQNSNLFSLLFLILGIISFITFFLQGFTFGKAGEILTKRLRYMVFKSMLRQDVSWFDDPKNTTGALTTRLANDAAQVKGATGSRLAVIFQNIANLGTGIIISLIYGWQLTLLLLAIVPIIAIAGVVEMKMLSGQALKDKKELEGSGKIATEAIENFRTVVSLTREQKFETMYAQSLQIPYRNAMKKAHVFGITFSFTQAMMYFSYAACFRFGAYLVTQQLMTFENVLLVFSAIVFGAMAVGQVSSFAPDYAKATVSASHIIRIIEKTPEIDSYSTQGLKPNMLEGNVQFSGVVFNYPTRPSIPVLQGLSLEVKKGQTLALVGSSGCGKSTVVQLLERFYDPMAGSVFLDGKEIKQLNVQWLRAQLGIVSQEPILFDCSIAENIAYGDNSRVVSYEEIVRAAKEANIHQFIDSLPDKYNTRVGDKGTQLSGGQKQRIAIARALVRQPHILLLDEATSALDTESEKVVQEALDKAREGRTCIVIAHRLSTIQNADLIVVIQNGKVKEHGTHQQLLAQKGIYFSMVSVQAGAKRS
Procedure: High-Five insect cells (Invitrogen) were infected with recombinant baculovirus carrying mouse P–gp (mP–gp) gene (Abcb1a). Membrane vesicles were prepared by hypotonic lysis of the insect cells, followed by ultracentrifugation to collect the membrane vesicles, as described in detail in reference. The native membranes obtained were suspended in storage buffer (45 mM Tris-HCl pH 7.5, 45 mM D-mannitol, 1.8 mM EGTA, 0.45% v/v aprotinin, 1.8 mM DTT, 0.9 mM AEBSF, and 10% v/v glycerol), aliquoted, and stored at −80 °C or in liquid nitrogen until use. The concentration of protein in the native membranes was quantified by the Sherman and Weismann method using Amido Black B dye.
The ATPase activity of P–gp in the High-Five insect cell membranes was measured by the end point Pi release assays, as described earlier with minor modifications. Native membranes were diluted in ATPase assay buffer (final concentrations: 41.2 mM Tris-MES pH = 6.8, 50 mM KCl, 5 mM NaN3, 2 mM EGTA, 1.03 mM Ouabain, 2 mM DTT, and 10 mM MgCl2), and the modulators were added from stocks in DMSO (final DMSO 1% v/v). The final concentration of protein was quantified, being ca. 0.1 mg/mL. Four samples were prepared at each modulator concentration, containing ATP at 5 mM, two of which also contained vanadate at 0.3 mM. P–gp specific activity was measured as vanadate-sensitive ATPase activity. The basal rate of ATP hydrolysis was 67 ± 4 nmol Pi mgP^−1 min^−1, with 37 ± 4 nmol Pi mgP^−1 min^−1 being sensitive to vanadate. The results obtained for the effect of the modulators on the ATPase activity in the presence and absence of vanadate are shown in the Supplementary Information (Figure S1).
The results were then analyzed with the formalism derived in this manuscript considering the distribution of the modulator in the distinct environments (aqueous phase, lipid bilayer and P-gp) and several equal and independent binding sites in P-gp’s binding pocket, Equations (3)–(9). The best fit was obtained with nonlinear least-square analysis using Microsoft Excel.
For the correct analysis of the results, the distribution of the amphiphiles in the distinct environments (aqueous media, lipid bilayer, and P–gp) must be considered. In addition, excess ligand should not be assumed. When considering that P–gp has several binding sites, the kinetic scheme that describes P–gp saturation with ligand is given by Equation (5). For details, see, e.g., references. (5) LW↔KPW→LbLLb LLb=KPW→LbLW VLb/VWLW+P↔β1PL1 PL1=β1PLWi LW+P↔βiPLi PLi=βiPLW^i n LW+P↔βnPLn PLn=βnPLW^n
The overall ATPase activity at each ligand concentration is calculated from the concentration of each protein species PLi and the corresponding ATPase activity Vi , (9) V=V0+∑i=1nPLi Vi
This formalism was used to describe the effect of the NBD amphiphiles on P–gp’s ATPase activity, considering a distinct ATPase activity for P–gp with a different number of amphiphile molecules in the binding pocket.

[1] = cited from earlier work; for critical aggregation concentration (CAC): 25 °C, aqueous; for increase of CAC in the presence of co-solvent: e.g. 1 M trehalose
[2] = Equation (9), local concentrations, n = 1 binding sites, read-out: Kd, microscopic dissociation constant
[3] = Equation (9), local concentrations, n = 2 binding sites, read-out: Kd, microscopic dissociation constant
[4] = Equation (9), local concentrations, n = 3 binding sites, read-out: Kd, microscopic dissociation constant
[5] = Equation (9), local concentrations, n = 4 binding sites, read-out: Kd, microscopic dissociation constant
[6] = Equation (9), local concentrations, n = 5 binding sites, read-out: Kd, microscopic dissociation constant
[7] = Equation (9), n = 3, read-out: β1, macroscopic binding constant of the first ligand (converted)
[8] = Equation (9), n = 4, read-out: β1, macroscopic binding constant of the first ligand (converted)
[9] = Equation (9), n = 5, read-out: β1, macroscopic binding constant of the first ligand (converted)
[10] = Equation (S1), total modulator concentration, constraint K1≤K2 for NBD–C8 and NBD–LysoMPE, [75% confidence interval], read-out: K2, dissociation constant for P–gp inhibition
[11] = Equation (S1), only activation for NBD–C4, constraint K1≤K2 for NBD–C8 and NBD–LysoMPE, [75% confidence interval]
[12] = Equation (S1), total modulator concentration, no constraint between K1 and K2, [75% confidence interval], read-out: K1, dissociation constant for P–gp activation
[13] = Equation (S1), total modulator concentration, no constraint between K1 and K2, [75% confidence interval], read-out: K2, dissociation constant for P–gp inhibition
[14] = Equation (S1), constraint K1≤K2 for NBD–C8
[15] = Equation (S1), no constraint between K1 and K2, [75% confidence interval], listed as NBD-C8
[16] = Equation (S1), no constraint between K1 and K2, [75% confidence interval]

Row | Compound | Kd (mouse P–gp (mP–gp); [2]) | Kd (mouse P–gp (mP–gp); [3]) | Kd (mouse P–gp (mP–gp); [4]) | Kd (mouse P–gp (mP–gp); [5]) | Kd (mouse P–gp (mP–gp); [6]) | V1, ATPase activity of P–gp with 1 amphiphile bound (mouse P–gp (mP–gp); Equation (9), n = 1) | V1, ATPase activity of P–gp with 1 amphiphile bound (mouse P–gp (mP–gp); Equation (9), n = 2) | V2, ATPase activity of P–gp with 2 amphiphiles bound (mouse P–gp (mP–gp); Equation (9), n = 2) | V1, ATPase activity of P–gp with 1 amphiphile bound (mouse P–gp (mP–gp); Equation (9), n = 3) | V2, ATPase activity of P–gp with 2 amphiphiles bound (mouse P–gp (mP–gp); Equation (9), n = 3) | V3, ATPase activity of P–gp with 3 amphiphiles bound (mouse P–gp (mP–gp); Equation (9), n = 3) | Kd (mouse P–gp (mP–gp); [7]) | V1, ATPase activity of P–gp with 1 amphiphile bound (mouse P–gp (mP–gp); Equation (9), n = 4) | V2, ATPase activity of P–gp with 2 amphiphiles bound (mouse P–gp (mP–gp); Equation (9), n = 4) | V3, ATPase activity of P–gp with 3 amphiphiles bound (mouse P–gp (mP–gp); Equation (9), n = 4) | V4, ATPase activity of P–gp with 4 amphiphiles bound (mouse P–gp (mP–gp); Equation (9), n = 4) | Kd (mouse P–gp (mP–gp); [8]) | V1, ATPase activity of P–gp with 1 amphiphile bound (mouse P–gp (mP–gp); Equation (9), n = 5) | V2, ATPase activity of P–gp with 2 amphiphiles bound (mouse P–gp (mP–gp); Equation (9), n = 5) | V3, ATPase activity of P–gp with 3 amphiphiles bound (mouse P–gp (mP–gp); Equation (9), n = 5) | also measured
1 | CCCCNc1ccc([N+](=O)[O-])c2nonc12 [NBD–C4] | 75 µM | 18 µM | 11 µM | 7 µM | 9 µM | 703% | 100% | 535% | 109% | 109% | 512% | 3.57 µM | 110% | 110% | 110% | 501% | 1.85 µM | 110% | 110% | 110% | V4, ATPase activity of P–gp with 4 amphiphiles bound (mouse P–gp (mP–gp); Equation (9), n = 5): 259%; V5, ATPase activity of P–gp with 5 amphiphiles bound (mouse P–gp (mP–gp); Equation (9), n = 5): 491%; Kd (mouse P–gp (mP–gp); [9]): 1.82 µM; K2, dissociation constant for P–gp inhibition (mouse P–gp (mP–gp); Equation (S1), total modulator concentration, constraint K1≤K2 for NBD–C8 and NBD–LysoMPE, [75% confidence interval]): outside the concentration range studied; Kd (mouse P–gp (mP–gp); [10]): > 60 µM; Emax (mouse P–gp (mP–gp); [11]): 734%; Effect on P–gp ATPase activity (mouse P–gp (mP–gp)): activation; critical aggregation concentration (CAC) [1]: 250 µM; increase of CAC in the presence of co-solvent [1]: not significantly affected
2 | CCCCCCCCNc1ccc([N+](=O)[O-])c2nonc12 [NBD–C8] | 3 µM | 11 µM | 4 µM | 4 µM | 6 µM | 286% | 388% | 0% | 112% | 403% | 65% | 1.28 µM | 113% | 260% | 317% | 62% | 1 µM | 122% | 275% | 253% | Kd (mouse P–gp (mP–gp); Equation (9), n = 2, read-out: β1, macroscopic binding constant of the first ligand (converted)): 5.26 µM; V4, ATPase activity of P–gp with 4 amphiphiles bound (mouse P–gp (mP–gp); Equation (9), n = 5): 253%; V5, ATPase activity of P–gp with 5 amphiphiles bound (mouse P–gp (mP–gp); Equation (9), n = 5): 0%; Kd (mouse P–gp (mP–gp); [9]): 1.16 µM; Kd (mouse P–gp (mP–gp); [10]): 29 µM; Kd (mouse P–gp (mP–gp); [12]): 17 µM; Kd (mouse P–gp (mP–gp); [13]): 29 µM; V2, residual activity at infinite modulator concentration (mouse P–gp (mP–gp); [14]): 0%; V1, maximum activation (mouse P–gp (mP–gp); [15]): 494 [380, 3000] %; V2, residual activity at infinite modulator concentration (mouse P–gp (mP–gp); [15]): 0 [0, 103] %; V2, residual activity at infinite modulator concentration (mouse P–gp (mP–gp); Equation (S1), no constraint between K1 and K2, [75% confidence interval], listed as NBD‐C8): 0%; Emax (mouse P–gp (mP–gp); [16]): 497%; V1, maximum activation (mouse P–gp (mP–gp); [11]): 494 % of the basal ATPase activity; V1, maximum activation (mouse P–gp (mP–gp); Equation (S1), only activation for NBD–C4, constraint K1≤K2 for NBD–C8 and NBD–LysoMPE, [75% confidence interval], listed as NBD-C8): 494 [380, 598] % of the basal ATPase activity; Emax (mouse P–gp (mP–gp); [11]): 497%; Effect on P–gp ATPase activity (mouse P–gp (mP–gp)): both activation and inhibition; critical aggregation concentration (CAC) [1]: 1 µM; increase of CAC in the presence of co-solvent [1]: 4 fold
3 | CCCCCCCCCCCCCC(=O)OCC(O)COP(=O)(O)OCCNc1ccc([N+](=O)[O-])c2nonc12 (stereo not drawn) [NBD–LysoMPE] | 20 µM | 6 µM | 3 µM | 3 µM | 3 µM | 0% | 122% | 0% | 99% | 146% | 0% | 1.09 µM | 100% | 100% | 129% | 0% | 0.714 µM | 100% | 100% | 116% | V4, ATPase activity of P–gp with 4 amphiphiles bound (mouse P–gp (mP–gp); Equation (9), n = 5): 97%; V5, ATPase activity of P–gp with 5 amphiphiles bound (mouse P–gp (mP–gp); Equation (9), n = 5): 0%; Kd (mouse P–gp (mP–gp); [9]): 0.588 µM; Kd (mouse P–gp (mP–gp); [12]): > 5 µM; Kd (mouse P–gp (mP–gp); [13]): ≤ 15 µM; V2, residual activity at infinite modulator concentration (mouse P–gp (mP–gp); [14]): 0%; V1, maximal ATPase activation (mouse P–gp (mP–gp); Equation (S1), in any case (with or without constraints on K1, K2)): < 126%; V2, residual activity at infinite modulator concentration (mouse P–gp (mP–gp); [16]): 0%; Emax (mouse P–gp (mP–gp); [16]): 102%; Emax (mouse P–gp (mP–gp); [11]): 106%; Effect on P–gp ATPase activity (mouse P–gp (mP–gp)): mostly inhibition; critical aggregation concentration (CAC) [1]: 4 µM

Reference: PMC9862096, “Interaction of a Homologous Series of Amphiphiles with P-glycoprotein in a Membrane Environment—Contributions of Polar and Non-Polar Interactions” (Pharmaceutics, 2023)
